Laboratory results: patent publication US7932262B2 (Novartis AG, priority 2006, dated 2011)

Legend:
[1] = tested on: pAkt308 (phosphorylation of Akt at T308) in PC-3 cells; test: pAkt T308 ECL Assay in PC-3 cells; format: cell-based; details: Homo sapiens, 6 h, six hours with compound, read-out: PAKT308 PC3 IC50
Protocol: VI. The pAkt^T308 ECL Assay Protocol
On Day 1, PC-3 cells were seeded at 15,000 cells/well in 100 μL/well ([…]) growth media into black-walled, clear bottom, poly-L-lysine coated plates. The cells were incubated overnight in a 37° C., 5% CO2 incubator.
On Day 2, a MSD ECL plate was blocked for two hours with 150 μL per well of 3% MSD blocker A.
Test compounds were diluted to 500× in DMSO and then were subjected to further serial dilution using a BioMek 2000 instrument. DMSO diluted compounds were then diluted into growth media and then added to the cell plates.
The cell plates incubated with compounds for six hours in a 37° C., 5% CO2 incubator after which the growth medium was removed and 55 μl of MSD lysis buffer was added to cell plates on ice. The plates were lysed on ice for five minutes followed by 15 minutes of vigorous shaking on a plate shaker at 4° C. The blocked MSD assay plates were washed twice with 1×MSD wash buffer followed by the addition of cell lysate as follows: 30 μl of cell lysate was added to the pAkt308 plates and 13 μl of lysate+12 μl lysis buffer was added to the tAkt plates. The plates were then sealed and shaken at 4° C. overnight.
On Day 3, the MSD plates were washed four times with 1×MSD wash buffer then, 25 μl/well of MSD SULFO-TAG antibodies diluted to 10 nM final concentration in 1% blocker. A buffer was added to the antibody diluent which was added to assay plates. The plates were then sealed and incubated at RT for 1.5 hour. The plates were then washed twice with 1×MSD wash buffer followed by the addition of 150 μl/well of 1.5×MSD read buffer. The plates were read immediately after the addition of read buffer using a Trilux instrument. […]

[2] = tested on: PC-3 cells; test: Cell Proliferation Assay (Cell Titer Glo), PC-3 cell line; format: cell-based; details: Homo sapiens, PC-3, 72 h, PC-3 cells, 3 days incubation; read-out: CP EC50 PC3
Method in brief: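 Cell Titer Glo luminescence, read after fresh medium replaced the dosing medium, gave viability of PC-3 cells plated at 1000 cells/well. Compounds, 1:3 serially diluted in DMSO at 500× and then in medium, were added after 3-5 h adhesion and incubated 3 days at 37° C.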

[3] = tested on: A2780 cells; test: Cell Proliferation Assay (Cell Titer Glo), A2780; format: cell-based; details: Homo sapiens, 72 h; A2780 cells, 3 days incubation; read-out: CPEC50 A2780
Method in brief: (§1)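 Following a 3-day compound exposure (37° C., 5% CO2) of A2780 or PC3MM cells plated at 1000 per well, viability was measured by Cell Titer Glo luminescence in fresh medium, read 10 min after reagent addition.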

[4] = target: T1, PDK1 kinase (Homo sapiens, UniProt O15530); test: PDK1 Kinase Alpha Screen Assay; format: biochemical; details: read-out: PDK1 IC50
T1 sequence (O15530 1-556): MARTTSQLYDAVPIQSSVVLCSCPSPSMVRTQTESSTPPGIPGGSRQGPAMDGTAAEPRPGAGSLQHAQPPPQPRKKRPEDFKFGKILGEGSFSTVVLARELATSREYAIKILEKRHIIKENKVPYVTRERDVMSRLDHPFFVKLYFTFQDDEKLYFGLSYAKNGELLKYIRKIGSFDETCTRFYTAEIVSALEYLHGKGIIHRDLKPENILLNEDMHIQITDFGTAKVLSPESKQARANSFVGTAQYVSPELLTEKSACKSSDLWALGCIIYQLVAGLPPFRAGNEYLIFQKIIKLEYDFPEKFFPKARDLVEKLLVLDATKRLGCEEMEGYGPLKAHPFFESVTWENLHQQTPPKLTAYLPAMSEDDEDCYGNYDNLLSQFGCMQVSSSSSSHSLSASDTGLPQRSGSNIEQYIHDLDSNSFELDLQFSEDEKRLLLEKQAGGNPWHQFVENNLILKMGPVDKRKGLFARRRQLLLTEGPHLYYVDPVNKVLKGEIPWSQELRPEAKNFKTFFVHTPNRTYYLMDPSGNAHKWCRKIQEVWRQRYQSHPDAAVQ
Method in brief: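 AlphaScreen readout: phospho-peptide captured by phospho-(Ser/Thr) PKA substrate antibody (0.3 mg/ml) on protein A acceptor beads, biotin peptide on streptavidin donor beads (25 μg/ml each), overnight at room temperature. Kinase step used 50 nM PDK1-4 peptide, 10 uM ATP, 3-18 hours.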

[5] = tested on: PC3MM cells; test: Cell Proliferation Assay (Cell Titer Glo), PC3MM; format: cell-based; details: 72 h; PC3MM cells, 3 days incubation; read-out: CP EC50 PC3MM
Method in brief: as §1

Structure (SMILES) | IC50 [1] [µM] | EC50 [2] [µM] | EC50 [3] [µM] | IC50 [4] [µM] | EC50 [5] [µM]
CN1C2CCC1CC(Oc1cccc3cnc(Nc4ccc(S(N)(=O)=O)cc4)nc13)C2 (stereo not drawn) [Compound 41, 4-[8-(8-Methyl-8-aza-bicyclo[3.2.1]oct-3-yloxy)-quinazolin-2-ylamino]-benzenesulfonamide] | < 5 | < 5 | < 5 | < 5 | 
CC(C)N1CCC(Oc2ccc3cnc(Nc4ccc(S(N)(=O)=O)cc4)nc3c2)CC1 [Compound 42, 4-[7-(l-Isopropyl-piperidin-4-yloxy)-quinazolin-2-ylamino]-benzenesulfonamide] | < 5 | < 5 | < 5 | < 5 | 
CC(C)NC(=O)c1ccc(Nc2ncc3cccc(OC4CCN(C(C)C)CC4)c3n2)cc1 [Compound 44, N-Isopropyl-4-[8-(1-isopropyl-piperidin-4-yloxy)-quinazolin-2-ylamino]-benzamide] | < 5 | < 5 | < 5 | < 5 | 
CC(C)CN1CCC(Oc2cccc3cnc(Nc4ccc(S(N)(=O)=O)cc4)nc23)CC1 [Compound 45, 4-[8-(1-Isobutyl-piperidin-4-yloxy)-quinazolin-2-ylamino]-benzenesulfonamide] | < 5 | < 5 | < 5 | < 5 | 
NS(=O)(=O)c1ccc(Nc2ncc3ccc(OC4CCNCC4)cc3n2)cc1 [Compound 51, 4-[7-(Piperidin-4-yloxy)-quinazolin-2-ylamino]-benzenesulfonamide] | < 5 | < 5 | < 5 | < 5 | 
CN1CCC(Oc2ccc3cnc(Nc4ccc(S(N)(=O)=O)cc4)nc3c2)CC1 [Compound 52, 4-[7-(1-Methyl-piperidin 4-yloxy)-quinazolin-2-ylamino]-benzenesulfonamide] | < 5 | < 5 | < 5 | < 5 | < 5

The next lines start with the values.

IC50 [1] [µM] | EC50 [2] [µM] | EC50 [3] [µM] | IC50 [4] [µM] | EC50 [5] [µM] | Structure (SMILES)
< 5 | < 5 | < 5 | < 5 |  | CN1CCC(Oc2ccc3cnc(Nc4ccc(S(=O)(=O)N5CCOCC5)cc4)nc3c2)CC1 [Compound 53, [7-(1-Methyl-piperidin-4-yloxy)-quinazolin-2-yl]-[4-(morpholine-4-sulfonyl)-phenyl]-amine]
< 5 | < 5 | < 5 | < 5 |  | NS(=O)(=O)c1ccc(Nc2ncc3ccc(-c4ccccc4)c(OC4CCNCC4)c3n2)cc1 [Compound 67, 4-[7-Phenyl-8-(piperidin-4-yloxy)-quinazolin-2-ylamino]-benzenesulfonamide]
< 5 | < 5 | < 5 | < 5 |  | CC(C)N1CCC(c2c(O)ccc3cnc(Nc4ccc(S(N)(=O)=O)cc4)nc23)CC1 [Compound 134, 4-[7-Hydroxy-8-(1-isopropyl-piperidin-4-yl)-quinazolin-2-ylamino]-benzenesulfonamide]
< 5 | < 5 | < 5 | < 5 |  | Cn1cc(-c2ccc3cnc(Nc4ccc(S(N)(=O)=O)cc4)nc3c2)cn1 [Compound 136, 4-[7-(1-Methyl-1H-pyrazol-4-yl)-quinazolin-2-ylamino]-benzenesulfonamide]
< 5 | < 5 | < 5 | < 5 |  | NS(=O)(=O)c1ccc(Nc2ncc3ccc(-c4cccnc4F)cc3n2)cc1 [Compound 137, 4-[7-(2-Fluoro-pyridin-3-yl)-quinazolin-2-ylamino]-benzenesulfonamide]
